The numbers were not newly measured in patent US6641611B2, “Therapeutic coating for an intravascular implant” (priority 2001, dated 2003), which cites them from elsewhere.

For series [1] the following is noted: for diabetes: high doses.

Like-named read-outs stand apart in the source and are kept apart here.

For `CO[C@H]1C[C@@H]2CC[C@@H](C)[C@@](O)(O2)C(=O)C(=O)N2CCCC[C@H]2C(=O)O[C@H]([C@H](C)C[C@@H]2CC[C@@H](O)[C@H](OC)C2)CC(=O)[C@H](C)/C=C(\C)[C@@H](O)[C@@H](OC)C(=O)[C@H](C)C[C@H](C)/C=C/C=C/C=C/1C` [rapamycin], the tolerability entry (fixed high dose monotherapy) was “well tolerated”. Besides, where the note is “monkeys, fixed doses of both drugs in combination”, the “increase in rapamycin levels in combination compared to rapamycin alone” value is reported as 5 fold. Also, the diabetes entry in series [1] (nonhuman primates) is reported as “not”; in series [1] (rats), “causes diabetes”. The body weight effect entry in series [1] (several species) was “weight loss”.
